| melting point [°C] | Compound |
| --- | --- |
| 218 to 225 | CCCCC1(CCCC)CS(=O)(=O)c2ccc(N(C)C)cc2[C@@H](c2cccc(NC(=O)OCCC[N+]34CCN(CC3)CC4)c2)[C@H]1O.[Cl-] |
| 246 to 248 | CCCCC1(CCCC)CS(=O)(=O)c2ccc(N(C)C)cc2[C@@H](c2cccc(NC(=O)Nc3cccc(C[N+]45CCN(CC4)CC5)c3)c2)[C@H]1O.[Cl-] |
| 174.5 to 177 | CCCC[C@]1(CC)CS(=O)(=O)c2ccc(N3CCCC3)cc2[C@@H](c2ccc(F)cc2)[C@H]1O [Compound 82, (3α,4β,5β)3-Butyl-3-ethyl-5-(4′-fluoropheny)-4-hydroxy-7-(1-pyrrolidinyl)-2,3,4,5-tetrahydrobenzothiepine-1,1-dioxide] |
| 176.5 to 187.5 | CCCC[C@]1(CC)CS(=O)(=O)c2ccc(N3CCOCC3)cc2[C@@H](c2ccc(F)cc2)[C@H]1O [Compound 83, (3α,4β,5β)3-Butyl-3-ethyl-5-(4′-fluorophenyl)-4-hydroxy-7-(1-morpholinyl)-2,3,4,5-tetrahydrobenzothiepine-1,1-dioxide] |
| 108 to 110 | CCCCC1(CCCC)CS(=O)(=O)c2ccc(N(C)C)cc2[C@@H](c2ccc(OCCCCS(N)(=O)=O)cc2)[C@H]1O [Example 1405] |
| 118 | CCCCC1(CCCC)CS(=O)(=O)c2ccc(N(C)C)cc2[C@@H](c2ccc(OCCCCCC(C(=O)O)C(=O)O)cc2)[C@H]1O [Example 1413, (4S-cis)-[5-[4-[3,3-Dibutyl-7-(dimethylamino)-2,3,4,5-tetrahydro-4-hydroxy-1,1-dioxido-1-benzothiepin-5-yl]phenoxy]pentyl]propanedioic Acid] |
| 193 to 197 | CCCCC1(CCCC)CS(=O)(=O)c2ccc(N(C)C)cc2[C@@H](c2ccc(OCCCCC[N+](C)(C)CC[N+](C)(C)CC)cc2)[C@H]1O [Example 1418, (4R-cis)-N-[5-[4-[3,3-Dibutyl-7-(dimethylamino)-2,3,4,5-tetrahydro-4-hydroxy-1,1-dioxido-1-benzothiepin-5-yl]phenoxy]pentyl]-N′-ethyl-N,N,N′,N′-tetramethyl-1,2-ethanediaminium Dichloride] |
| 80 to 85 | CCCCC1(CCCC)CS(=O)(=O)c2ccc(N(C)C)cc2[C@@H](c2ccc(OCCCCCc3nn[nH]n3)cc2)[C@H]1O [Example 1420, (4R-cis)-3,3-Dibutyl-7-(dimethylamino)-2,3,4,5-tetrahydro-5-[4-[[5-(1H-tetrazol-5-yl)pentyl]oxy]phenyl]-1-benzothiepin-4-ol 1,1-Dioxide] |
| 143 | CCCCC1(CCCC)CS(=O)(=O)c2ccc(N(C)C)cc2[C@@H](c2ccc(OCCCCCOc3cc(C(=O)O)nc(C(=O)O)c3)cc2)[C@H]1O [Example 1421, (4R-cis)-4-[[5-[4-[3,3-Dibutyl-7-(dimethylamino)-2,3,4,5-tetrahydro-4-hydroxy-1,1-dioxido-1-1benzothiepin-5-yl]phenoxy]pentyl]oxy]-2,6-pyridinecarboxylic Acid] |
| 67 to 72.5 | CCCCC1(CCCC)CS(=O)(=O)c2ccc(N(C)C)cc2[C@@H](c2ccc(OCCCCCNC(=N)N)cc2)[C@H]1O [Example 1422, (4R-cis)-[5-[4-[3,3-Dibutyl-7-(dimethylamino)-2,3,4,5-tetrahydro-4-hydroxy-1,1-dioxido-1-benzothiepin-5-yl]phenoxy]pentyl]guanidine] |
| 156 to 159 | CCCCC1(CCCC)CS(=O)(=O)c2ccc(N(C)C)cc2[C@@H](c2ccc(OCc3ccc(C(=O)O)cc3)cc2)[C@H]1O [Example 1424, (4R-cis)-4-[[4-[3,3-Dibutyl-7-(dimethylamino)-2,3,4,5-tetrahydro-4-hydroxy-1,1-dioxido-1-benzothiepin-5-yl]phenoxy]methyl]benzoic Acid] |
| 105 to 107 | CCCCC1(CCCC)CS(=O)(=O)c2ccc(N(C)C)cc2[C@@H](c2ccc(OCc3cccc(CCC(=O)O)n3)cc2)[C@H]1O [Example 1430, (4R-cis)-6-[[4-[3,3-Dibutyl-7-(dimethylamino)-2,3,4,5-tetrahydro-4-hydroxy-1,1-dioxido-1-benzothiepin-5-yl]phenoxy]methyl]-2-pyridinepropanoic Acid] |
| 119.5 | CCCCC1(CCCC)CS(=O)(=O)c2ccc(N(C)C)cc2[C@@H](c2ccc(OCCOCCC(C(=O)O)C(=O)O)cc2)[C@H]1O [Example 1432, (4S-cis)-[2-[2-[4-[3,3-Dibutyl-7-(dimethylamino)-2,3,4,5-tetrahydro-4-hydroxy-1,1-dioxido-1-benzothiepin-5-yl]phenoxy]ethoxy]ethyl]propanedioic Acid] |

Source: US6740663B2, “Mono- and di-fluorinated benzothiepine compounds as inhibitors of apical sodium co-dependent bile acid transport (ASBT) and taurocholate uptake” (G.D. Searle, LLC, priority 2001, dated 2004)
